These results are taken from ChEMBL document CHEMBL2073899, “Quantitative distinctions of active site molecular recognition by P-glycoprotein and cytochrome P450 3A4” (Chem Res Toxicol, 2001).

The assay deals with ATP-dependent translocase ABCB1 (Homo sapiens, UniProt P08183). The assay can be described thus: TP_TRANSPORTER: inhibition of Daunorubicin efflux in NIH-3T3-G185 cells.
Chain of ATP-dependent translocase ABCB1 (P08183 whole entry): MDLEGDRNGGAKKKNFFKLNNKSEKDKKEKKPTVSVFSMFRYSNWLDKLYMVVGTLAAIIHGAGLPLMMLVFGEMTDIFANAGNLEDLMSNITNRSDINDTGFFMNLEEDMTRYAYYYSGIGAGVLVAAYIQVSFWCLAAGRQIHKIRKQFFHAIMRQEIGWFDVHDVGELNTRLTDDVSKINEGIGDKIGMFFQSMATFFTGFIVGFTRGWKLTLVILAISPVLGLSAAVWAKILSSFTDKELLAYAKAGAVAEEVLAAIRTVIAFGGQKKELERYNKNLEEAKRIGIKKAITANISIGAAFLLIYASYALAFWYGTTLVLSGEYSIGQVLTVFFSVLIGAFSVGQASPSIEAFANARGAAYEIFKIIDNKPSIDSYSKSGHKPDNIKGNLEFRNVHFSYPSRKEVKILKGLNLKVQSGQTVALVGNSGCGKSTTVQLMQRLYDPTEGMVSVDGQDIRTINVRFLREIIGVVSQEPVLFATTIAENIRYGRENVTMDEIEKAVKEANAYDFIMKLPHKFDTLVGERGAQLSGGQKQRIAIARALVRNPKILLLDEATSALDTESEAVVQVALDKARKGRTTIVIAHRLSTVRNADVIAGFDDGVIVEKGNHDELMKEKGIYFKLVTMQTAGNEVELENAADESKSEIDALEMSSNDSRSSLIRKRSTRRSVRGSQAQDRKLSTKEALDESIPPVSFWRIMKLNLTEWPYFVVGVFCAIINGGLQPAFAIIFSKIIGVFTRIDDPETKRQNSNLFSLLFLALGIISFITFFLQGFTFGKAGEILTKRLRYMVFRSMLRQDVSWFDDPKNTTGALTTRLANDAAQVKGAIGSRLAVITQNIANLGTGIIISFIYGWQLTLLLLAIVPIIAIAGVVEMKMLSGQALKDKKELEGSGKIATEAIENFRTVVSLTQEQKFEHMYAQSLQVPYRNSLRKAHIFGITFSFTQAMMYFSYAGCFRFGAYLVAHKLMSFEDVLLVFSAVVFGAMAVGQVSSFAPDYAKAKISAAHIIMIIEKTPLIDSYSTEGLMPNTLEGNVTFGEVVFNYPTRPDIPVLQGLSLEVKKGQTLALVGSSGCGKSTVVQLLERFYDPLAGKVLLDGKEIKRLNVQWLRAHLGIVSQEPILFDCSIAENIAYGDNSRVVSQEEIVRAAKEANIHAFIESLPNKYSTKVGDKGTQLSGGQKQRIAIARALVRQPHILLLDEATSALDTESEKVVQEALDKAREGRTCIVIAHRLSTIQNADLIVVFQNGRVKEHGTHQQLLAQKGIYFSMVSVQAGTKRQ
For `COc1ccc(CCN(C)CCCC(C#N)(c2cc(OC)c(OC)c(OC)c2)C(C)C)cc1OC` (stereo unspecified) [GALLOPAMIL], the IC50 (commonly the concentration at which inhibition is half-maximal) came to 3.2 µM. Compound `COC(=O)C1=C(C)NC(C)=C(C(=O)OC)C1c1ccccc1[N+](=O)[O-]` [NIFEDIPINE] came in with an IC50 of 113 µM. In turn, `COc1ccc(-c2cc(=O)c3c(OC)c(OC)c(OC)c(OC)c3o2)cc1OC` [NOBILETIN] came in with an IC50 of 11.5 µM. On to `COc1ccc(CCNCCCC(C#N)(c2ccc(OC)c(OC)c2)C(C)C)cc1OC` (stereo unspecified) [NORVERAPAMIL], for which it took 0.9 µM to reach half-maximal inhibition (IC50).

For `CC(=O)S[C@@H]1CC2=CC(=O)CC[C@]2(C)[C@H]2CC[C@@]3(C)[C@@H](CC[C@@]34CCC(=O)O4)[C@H]12` [SPIRONOLACTONE], the IC50 stood at 23.6 µM. As for `CC(C)[C@@H]1NC(=O)[C@H](C)OC(=O)[C@@H](C(C)C)NC(=O)[C@@H](C(C)C)OC(=O)[C@H](C(C)C)NC(=O)[C@H](C)OC(=O)[C@@H](C(C)C)NC(=O)[C@@H](C(C)C)OC(=O)[C@H](C(C)C)NC(=O)[C@H](C)OC(=O)[C@@H](C(C)C)NC(=O)[C@@H](C(C)C)OC1=O` [VALINOMYCIN], the IC50 turned out to be 3.2 µM.
